Assay results from the NIST ThermoML archive (doi:10.1016/j.jct.2014.04.026).

Legend:
[1] = for vapor or sublimation pressure: Closed cell (Static) method; for Normal melting temperature: DTA
[2] = Molar enthalpy of transition or fusion; details: Crystal; DSC

Cn1ccc2ccccc21 [1-methylindole]
[1]
Details | vapor or sublimation pressure [kPa]
267.62 K, Crystal | 0.00033
268.58 K, Liquid | 0.00043
268.6 K, Crystal | 0.00037
269.57 K, Crystal | 0.00042
270.55 K, Crystal | 0.00048
270.56 K, Liquid | 0.00054
271.57 K, Crystal | 0.00054
272.5 K, Liquid | 0.00066
272.52 K, Crystal | 0.0006
273.51 K, Crystal | 0.00068
274.48 K, Liquid | 0.00081
274.5 K, Crystal | 0.00077
275.47 K, Crystal | 0.00086
276.45 K, Liquid | 0.00097
278.42 K, Liquid | 0.0012
280.39 K, Liquid | 0.00145
282.35 K, Liquid | 0.00176
284.36 K, Liquid | 0.00211
286.31 K, Liquid | 0.00252
288.32 K, Liquid | 0.00302
290.27 K, Liquid | 0.00358
290.29 K, Liquid | 0.00359
292.29 K, Liquid | 0.00431
294.24 K, Liquid | 0.00507
296.28 K, Liquid | 0.00607
298.2 K, Liquid | 0.0071
300.25 K, Liquid | 0.00844
302.2 K, Liquid | 0.00987
304.21 K, Liquid | 0.01167
306.16 K, Liquid | 0.01359
308.14 K, Liquid | 0.0158
310.17 K, Liquid | 0.01854
312.14 K, Liquid | 0.02149
314.11 K, Liquid | 0.02521
316.14 K, Liquid | 0.029
318.06 K, Liquid | 0.03354
320.05 K, Liquid | 0.03839
322.02 K, Liquid | 0.0445
324.04 K, Liquid | 0.05044
326.02 K, Liquid | 0.05848
327.98 K, Liquid | 0.06647
329.95 K, Liquid | 0.07637
331.91 K, Liquid | 0.08658
333.89 K, Liquid | 0.09881
335.91 K, Liquid | 0.1114
337.89 K, Liquid | 0.1263
339.81 K, Liquid | 0.1424
341.9 K, Liquid | 0.1624

Details | Normal melting temperature [°C]
[1], Crystal | 3.4

Details | Molar enthalpy of transition or fusion [kcal/mol]
[2] | 2.61

Cn1cccn1 [1-methyl-1H-pyrazole]
[1], Liquid
Details | vapor or sublimation pressure [kPa]
253.9 K | 0.0681
255.85 K | 0.08089
257.81 K | 0.0948
260.03 K | 0.1138
261.7 K | 0.1308
263.65 K | 0.1508
265.63 K | 0.1755
267.62 K | 0.2033
269.55 K | 0.2358
271.5 K | 0.2714
273.47 K | 0.3111
275.47 K | 0.3597
277.42 K | 0.4115
279.4 K | 0.4704
281.39 K | 0.539
283.35 K | 0.6108
285.3 K | 0.6958
287.32 K | 0.7878
289.32 K | 0.893
291.27 K | 1.01
293.27 K | 1.147

Details | Normal melting temperature [°C]
[1], Crystal | -43.9

Details | Molar enthalpy of transition or fusion [kcal/mol]
[2] | 2.72
